Results taken from paper PMC7812727, “Neuropilin 1 and Neuropilin 2 gene invalidation or pharmacological inhibition reveals their relevance for the treatment of metastatic renal cell carcinoma” (Journal of Experimental & Clinical Cancer Research : CR, 2021).

Columns and labels:
[1] = biological target: T1, NRP1 (Neuropilin 1) (Homo sapiens, UniProt O14786); experiment: plate-based competitive binding assay: displacement of biotinylated VEGFA from coated recombinant human NRP1 (chemiluminescence); assay type: biochemical
T1 construct: recombinant human NRP1
T1 sequence (O14786 22-923): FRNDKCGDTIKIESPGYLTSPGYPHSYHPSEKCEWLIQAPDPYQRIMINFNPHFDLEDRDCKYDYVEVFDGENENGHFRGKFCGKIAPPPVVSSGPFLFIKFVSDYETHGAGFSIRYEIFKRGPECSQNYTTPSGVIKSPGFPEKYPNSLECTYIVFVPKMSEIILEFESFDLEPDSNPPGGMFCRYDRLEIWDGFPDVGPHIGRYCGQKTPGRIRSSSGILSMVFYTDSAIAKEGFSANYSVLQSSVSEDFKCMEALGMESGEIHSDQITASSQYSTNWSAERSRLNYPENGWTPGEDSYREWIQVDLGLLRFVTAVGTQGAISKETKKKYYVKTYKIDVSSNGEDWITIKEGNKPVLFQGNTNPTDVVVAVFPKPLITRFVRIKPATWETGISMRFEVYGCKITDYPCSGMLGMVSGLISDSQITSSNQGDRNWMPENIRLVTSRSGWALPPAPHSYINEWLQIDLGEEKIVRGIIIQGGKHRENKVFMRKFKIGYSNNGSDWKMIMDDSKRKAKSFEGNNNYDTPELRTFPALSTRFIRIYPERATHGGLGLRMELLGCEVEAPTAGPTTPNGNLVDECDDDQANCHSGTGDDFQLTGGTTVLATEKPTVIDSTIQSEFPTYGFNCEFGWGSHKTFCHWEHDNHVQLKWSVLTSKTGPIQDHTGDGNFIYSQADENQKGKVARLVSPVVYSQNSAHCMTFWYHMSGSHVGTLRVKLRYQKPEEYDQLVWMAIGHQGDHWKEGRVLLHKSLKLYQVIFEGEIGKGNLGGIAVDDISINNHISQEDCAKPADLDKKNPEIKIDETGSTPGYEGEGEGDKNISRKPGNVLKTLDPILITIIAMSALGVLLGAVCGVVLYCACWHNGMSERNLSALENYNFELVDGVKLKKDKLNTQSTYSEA
Excerpt: plate-based competitive binding assay: displacement of biotinylated VEGFA from coated recombinant human NRP1 (chemiluminescence) on NRP1 (Neuropilin 1) | NRPa-308 inhibited VEGFA/NRP1 and VEGFA/NRP2 binding in a dose-dependent manner

[2] = biological target: T2, NRP2 (Neuropilin 2) (Homo sapiens, UniProt O60462); experiment: plate-based competitive binding assay: displacement of biotinylated VEGFA, or of VEGFC, from coated recombinant human NRP2 (chemiluminescence); assay type: biochemical
T2 construct: recombinant human NRP2
T2 sequence (O60462 21-931): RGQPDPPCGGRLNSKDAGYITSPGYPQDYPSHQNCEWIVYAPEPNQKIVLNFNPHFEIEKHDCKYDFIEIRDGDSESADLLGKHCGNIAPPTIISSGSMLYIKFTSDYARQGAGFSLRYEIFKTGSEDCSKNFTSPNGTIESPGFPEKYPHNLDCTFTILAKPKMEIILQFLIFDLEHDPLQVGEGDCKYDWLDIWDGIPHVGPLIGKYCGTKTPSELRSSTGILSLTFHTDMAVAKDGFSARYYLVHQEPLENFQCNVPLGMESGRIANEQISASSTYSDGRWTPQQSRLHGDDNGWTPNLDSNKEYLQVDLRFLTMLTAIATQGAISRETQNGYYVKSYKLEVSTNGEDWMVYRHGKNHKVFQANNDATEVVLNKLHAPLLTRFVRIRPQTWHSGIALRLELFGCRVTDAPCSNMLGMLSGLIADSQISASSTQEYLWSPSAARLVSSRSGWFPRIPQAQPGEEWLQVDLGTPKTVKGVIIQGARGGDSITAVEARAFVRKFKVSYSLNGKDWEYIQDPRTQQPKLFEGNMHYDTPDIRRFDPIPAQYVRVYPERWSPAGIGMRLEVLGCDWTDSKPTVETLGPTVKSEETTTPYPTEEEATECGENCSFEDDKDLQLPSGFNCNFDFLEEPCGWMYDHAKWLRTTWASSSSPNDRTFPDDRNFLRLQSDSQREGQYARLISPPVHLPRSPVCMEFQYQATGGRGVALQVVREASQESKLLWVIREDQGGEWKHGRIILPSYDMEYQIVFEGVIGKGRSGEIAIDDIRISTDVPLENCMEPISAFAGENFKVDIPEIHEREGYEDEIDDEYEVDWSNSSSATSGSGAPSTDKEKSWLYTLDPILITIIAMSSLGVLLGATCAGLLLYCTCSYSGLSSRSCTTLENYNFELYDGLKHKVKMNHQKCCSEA
Excerpt: plate-based competitive binding assay: displacement of biotinylated VEGFA, or of VEGFC, from coated recombinant human NRP2 (chemiluminescence) on NRP2 (Neuropilin 2) | NRPa-308 inhibited VEGFA/NRP1 and VEGFA/NRP2 binding in a dose-dependent manner

CCOc1ccccc1NC(=O)c1ccc(C)c(S(=O)(=O)Nc2ccc(C)cc2)c1 [NRPa-308]
% maximal inhibition [1]: ~ 40 % maximal inhibition | % maximal inhibition [2]: ~ 40 % maximal inhibition
